In brackets after ≈: the same amount, converted by molar mass. Counter-ions that a name gives are not always drawn.
Experiments:
Test in all cases: In vitro antifungal activity, MIC (Method A)
Assay type in all cases: cell-based
Aspergillus fumigatus = settings: Aspergillus fumigatus, 72 h, 3 days, 27° C.
Experimental: (§1) The in vitro antifungal activities of representative compounds of the present invention were measured by determining the minimal inhibitory concentration (MIC), which is the concentration of an antifungal at which no fungal growth can be observed.
(§2) The MICs were determined by the microbroth dilution procedure according to NCCLS with the following minor modifications (Galgiani et al., Antimicrob. Agents Chemother., 33, 731 (1989). The medium was solidified with 0.2% low melting point agarose and buffered to pH 7.0 with 0.25%: K2 HPO4 in Yeast Nitrogen Base (Difco Lab.). Inoculum size was 1×10^5 cells/ml, and incubation was carried out for 3 days at 27° C. The MICs ([…]) are shown in Table 1. The reference compound is compound (IA) in U.S. Pat. No. 4,952,604. The compounds used are identified by reference to the Examples in which they were prepared.
(§3) The in vitro antifungal activities of the representative compounds of the present invention shown in Table 1 and Table 2 were measured by determining the minimal inhibitory concentrations (MIC: Method A) or 80% growth inhibition concentration (IC80 : Method B) respectively. MIC is defined as the concentration of an antifungal at which growth of fungi is not observed and IC80 is the concentration where cell turbidity measured at OD630 is reduced by 80%.
(§4) Antifungal activities were determined by either method A or B (see below) using microtest plates according NCCLS with minor modifications (Galgiani et at., Antimicrob. Agents Chemother. 33, 731 (1989)).
(§5) (Method A) The medium was solidified with 0.2% low melting point agarose and buffered to pH 7.0 with 0.25% K2 HPO4 in Yeast Nitrogen Base (Difco Lab.). Inoculum size was 1×10^5 cells/ml, and incubation was carried out for 3 days at 27° C. The reference compound is compound (IA) in U.S. Pat. No. 4,952,604.

Candida albicans = settings: Candida albicans, 72 h, 3 days, 27° C.
Experimental: as §1, §2, §3, §4, §5

Cryptococcus neoformans = settings: Cryptococcus neoformans, 72 h, 3 days, 27° C.
Experimental: as §1, §2, §3, §4, §5

[1] = pH 7, Aspergillus fumigatus CF1003, 1×10^5 cells/ml
[2] = pH 7, Aspergillus fumigatus CF1004, 1×10^5 cells/ml
[3] = pH 7, Aspergillus fumigatus CF1023, 1×10^5 cells/ml
[4] = pH 7, Candida albicans CY1002, 1×10^5 cells/ml
[5] = pH 7, Candida albicans CY1005, 1×10^5 cells/ml
[6] = pH 7, Candida albicans CY3003, 1×10^5 cells/ml
[7] = pH 7, Cryptococcus neoformans CY1057, 1×10^5 cells/ml
[8] = pH 7, Cryptococcus neoformans CY1059, 1×10^5 cells/ml
[9] = pH 7, Cryptococcus neoformans CY1061, 1×10^5 cells/ml

Structure (SMILES)	MIC (Aspergillus fumigatus; [1]) [mg/L]	MIC (Aspergillus fumigatus; [2]) [mg/L]	MIC (Aspergillus fumigatus; [3]) [mg/L]	MIC (Candida albicans; [4]) [mg/L]	MIC (Candida albicans; [5]) [mg/L]	MIC (Candida albicans; [6]) [mg/L]	MIC (Cryptococcus neoformans; [7]) [mg/L]	MIC (Cryptococcus neoformans; [8]) [mg/L]	MIC (Cryptococcus neoformans; [9]) [mg/L]
CCCCCCCCO[C@@H]1CCC(C)(C)C[C@H]1CC(O)CN (relative stereo) [Example 84, 1-[(1S^*,2R^*)-5,5-dimethyl-2-octyloxycyclohexyl]-3-amino-2-propanol]	25 (≈ 79.7 µM)	6.25 (≈ 19.9 µM)	6.25 (≈ 19.9 µM)	12.5 (≈ 39.9 µM)	12.5 (≈ 39.9 µM)	12.5 (≈ 39.9 µM)	3.13 (≈ 9.98 µM)	6.25 (≈ 19.9 µM)	6.25 (≈ 19.9 µM)
CCCCCCC/C=C\[C@@H]1OC[C@H](C)[C@H](OC)[C@H]1OC(=O)CN [Example 1, (2S,3R,4S,5S)-4-methoxy-5-methyl-2-[(Z)-1-nonenyl]tetrahydro-2H-pyran-3-ylglycinate trifluoro acetic acid salt]	100	200	100	100	100	100	1.56	3.13	6.25
CCCCCCCCC[C@@H]1OC[C@H](C)[C@H](OC)[C@@H]1OC(=O)CN.O=CO [Example 5, (2S,3R,4S,5S)-4-methoxy-5-methyl-2-nonyl-tetrahydro-2H-pyran-3-yl glycinate formic acid salt]	50	100	50	50	25	25	12.5	12.5	25
CCCCCCCC/C=C/[C@@H]1OC[C@H](C)[C@H](OC)[C@H]1OC(=O)CN.O=C(O)C(F)(F)F [Example 6, (2S,3R,4S,5S)-2-[(E)-1-decenyl]-4-methoxy-5-methyltetrahydro-2H-pyran-3-yl glycinate trifluoroacetic acid salt]	12.5	12.5	6.25	100	100	100	12.5	12.5	25
CO[C@@H]1[C@H](OC(=O)CN)[C@H](CCCC(C)CCCC(C)C)OC[C@@H]1C.O=C(O)C(F)(F)F (stereo partly drawn) [Example 8, (2S,3R,4S,5S)-2-(4,8-dimethylnonyl)-4-methoxyl-5-methyltetrahydro-2H-pyran-3-yl glycinate trifluoroacetic acid salt]	50	100	50	50	50	50	12.5	12.5	12.5
CCC/C=C/C=C/C=C/[C@@H]1OC[C@H](C)[C@H](OC)[C@H]1OC(=O)CN.O=CO [Example 11, (2S,3R,4S,5S)-4-methoxy-5-methyl-2-[(1E,3E,5E)-1,3,5-nonatrienyl]tetrahydro-2H-pyran-3-yl glycinate formic acid salt]	6.25	6.25	6.25	200	200	100	6.25	6.25	25
CCC/C=C/C=C/C=C\[C@@H]1OC[C@H](C)[C@H](OC)[C@H]1OC(=O)CN.O=CO [Example 12, (2S,3R,4S,5S)-4-methoxy-5-methyl-2-[(1Z,3E,5E)-1,3,5-nonatrienyl]tetrahydro-2H-pyran-3-yl glycinate formic acid salt]	25	12.5	25	200	> 200	> 200	1.56	3.13	6.25
CCCCCCC/C=C\[C@@H]1OC[C@H](C)[C@H](OCCC)[C@H]1OC(=O)CN [Example 22, (2S,3R,4S,5-S)-5-methyl-2-[(Z)-1-nonenyl]-4-prpoxy-tetrahydro-2H-pyran-3-ylglycinate trifluoroacetic acid salt]	50	50	50	50	50	50	6.25	12.5	12.5

Reference: US5719291A, “Cyclohexane derivatives” (Hoffmann-La Roche Inc., priority 1991, dated 1998)
